Laboratory results published in ChEMBL document CHEMBL5365481, “Design, Synthesis, and Activity Evaluation of Novel Dual-Target Inhibitors with Antifungal and Immunoregulatory Properties” (J Med Chem, 2023).
≈ marks a conversion by molar mass, not a printed value. Calls of active or inactive are those of the source. The rule behind the calls is not given here.

What was measured:
Candida albicans [1] = assay: Induction of apoptosis in Candida albicans ATCC SC5314 assessed as increase in blue fluorescence intensity at 1 microM/ml incubated for 48 hrs by Hoechst 33258/PI staining based fluorescence microscopy; format: functional, organism-based
Candida albicans [2] = assay: In vivo antifungal activity against Candida albicans ATCC SC5314 infected in BALB/c mouse assessed as decrease in IFN-gamma expression level at 10 ug, ip for 14 days in presence of Biphenyl isopropyl ester by Western blot analysis; format: functional, organism-based; details: dose 10.0 µg, time 14.0 day
Candida albicans [3] = assay: In vivo antifungal activity against Candida albicans ATCC SC5314 infected in BALB/c mouse assessed as decrease in IFN-gamma expression level at 10 ug, ip for 14 days by immunohistochemical analysis; format: functional, organism-based; details: dose 10.0 µg, time 14.0 day
Candida albicans [4] = assay: Induction of apoptosis in Candida albicans ATCC SC5314 assessed as early apoptotic cells at 1 microM/ml incubated for 48 hrs by Hoechst 33258/PI staining based flow cytometry (Rvb= 5.1 +/- 0.3%); format: functional
Candida albicans [5] = assay: In vivo antifungal activity against Candida albicans ATCC SC5314 infected in BALB/c mouse assessed as decrease in IFN-gamma expression level at 10 ug, ip for 14 days by Western blot analysis; format: functional, organism-based; details: dose 10.0 µg, time 14.0 day
Candida albicans [6] = assay: In vivo antifungal activity against Candida albicans ATCC SC5314 infected in BALB/c mouse assessed as decrease in necrotic cell debris in tissue gap at 10 ug, ip for 14 days in presence of Biphenyl isopropyl ester by GMS staining based microscopy; format: functional, organism-based; details: dose 10.0 µg, time 14.0 day
[7] = Toxicity in BALB/c mouse infected with Candida albicans ATCC SC5314 assessed as morphological changes in liver at 10 ug, ip for 14 days by H and E staining based microscopy; format: organism-based; details: in vivo, 336 h, dose 10 µg, time 14 day
Candida albicans [8] = assay: In vivo antifungal activity against Candida albicans ATCC SC5314 infected in BALB/c mouse assessed as decrease in COX2 expression level at 10 ug, ip for 14 days by Western blot analysis; format: functional, organism-based; details: dose 10.0 µg, time 14.0 day
Candida albicans [9] = assay: In vivo antifungal activity against Candida albicans ATCC SC5314 infected in BALB/c mouse assessed as fold increase in CD3+ expression level in T cells at 10 ug, ip for 14 days in presence of Biphenyl isopropyl ester by immunohistochemical analysis; format: functional, T-cell; details: dose 10 µg, time 14 day
[10] = Toxicity in BALB/c mouse infected with Candida albicans ATCC SC5314 assessed as morphological changes in kidney at 10 ug, ip for 14 days by H and E staining based microscopy; format: organism-based; details: in vivo, 336 h, dose 10 µg, time 14 day
Candida albicans [11] = assay: In vivo antifungal activity against Candida albicans ATCC SC5314 infected in BALB/c mouse assessed as decrease in IFN-gamma expression level at 10 ug, ip for 14 days in presence of Biphenyl isopropyl ester by immunohistochemical analysis; format: functional, organism-based; details: dose 10.0 µg, time 14.0 day
[12] = Toxicity in BALB/c mouse infected with Candida albicans ATCC SC5314 assessed as plasma ALT level at 10 ug, ip for 14 days; format: organism-based; details: in vivo, 336 h, dose 10 µg, time 14 day
Candida albicans [13] = assay: Induction of ROS generation in Candida albicans ATCC SC5314 assessed as increase in fluorescence intensity at 1 microM/ml incubated for 48 hrs by fluorescent microscopy; format: functional, organism-based
[14] = Toxicity in BALB/c mouse infected with Candida albicans ATCC SC5314 assessed as morphological changes in spleen at 10 ug, ip for 14 days by H and E staining based microscopy; format: organism-based; details: in vivo, 336 h, dose 10 µg, time 14 day
[15] = Toxicity in BALB/c mouse infected with Candida albicans ATCC SC5314 assessed as morphological changes in liver at 10 ug, ip for 14 days in presence of Biphenyl isopropyl ester by H and E staining based microscopy; format: organism-based; details: in vivo, 336 h, dose 10 µg, time 14 day
[16] = Toxicity in BALB/c mouse infected with Candida albicans ATCC SC5314 assessed as morphological changes in heart at 10 ug, ip for 14 days by H and E staining based microscopy; format: organism-based; details: in vivo, 336 h, dose 10 µg, time 14 day
Pichia kudriavzevii = assay: Antifungal activity against Candida krusei ATCC 6258 assessed as inhibition of fungal growth incubated for 72 hrs by CLSI based liquid medium microdilution method; format: functional
[17] = Toxicity in BALB/c mouse infected with Candida albicans ATCC SC5314 assessed as morphological changes in heart at 10 ug, ip for 14 days in presence of Biphenyl isopropyl ester by H and E staining based microscopy; format: organism-based; details: in vivo, 336 h, dose 10 µg, time 14 day
Candida albicans [18] = assay: Antifungal activity against fluconazole-resistant Candida albicans CaR assessed as inhibition of fungal growth incubated for 72 hrs by CLSI based liquid medium microdilution method; format: functional
Candida albicans [19] = assay: In vivo antifungal activity against Candida albicans ATCC SC5314 infected in BALB/c mouse assessed as decrease in COX2 expression level at 10 ug, ip for 14 days in presence of Biphenyl isopropyl ester by Western blot analysis; format: functional, organism-based; details: dose 10.0 µg, time 14.0 day
[20] = molecular target: Lanosterol 14-alpha demethylase (Candida albicans (strain SC5314 / ATCC MYA-2876) (Yeast), UniProt P10613); assay: Inhibition of Candida albicans ATCC SC5314 CYP51 assessed as ergosterol content at 4 ug/ml measured after 16 hrs by GC-MS analysis (reference value: 92.71%); set-up: scale not given: the % may be the effect or the level left; details: at 4 µg/mL
Cryptococcus neoformans = assay: Antifungal activity against Cryptococcus neoformans ZKCC 2209 assessed as inhibition of fungal growth incubated for 72 hrs by CLSI based liquid medium microdilution method; format: functional
[21] = molecular target: Programmed cell death 1 ligand 1 (Homo sapiens, UniProt Q9NZQ7); assay: Binding affinity to PD-L1 (unknown origin) assessed as dissociation constant by SPR analysis
[22] = molecular target: Programmed cell death protein 1/Programmed cell death 1 ligand 1 (Homo sapiens, UniProt Q9NZQ7); assay: Inhibition of PD-1/PD-L1 interaction (unknown origin) incubated for 15 mins by ELISA; format: protein-complex assay
Cell membrane [23] = assay: Induction of cell membrane integrity disruption in Candida albicans ATCC SC5314 assessed as seepage of cell contents into external region at 1 microM/ml incubated for 96 hrs by TEM analysis; format: subcellular
Candida albicans [24] = assay: In vivo antifungal activity against Candida albicans ATCC SC5314 infected in BALB/c mouse assessed as fold increase in CD3+ expression level in T cells at 10 ug, ip for 14 days by immunohistochemical analysis; format: functional, T-cell; details: dose 10 µg, time 14 day
Candida albicans [25] = assay: In vivo antifungal activity against Candida albicans ATCC SC5314 infected in BALB/c mouse assessed as fold increase in CD8+ expression level in T cells at 10 ug, ip for 14 days by immunohistochemical analysis; format: functional
Candida albicans [26] = assay: In vivo antifungal activity against Candida albicans ATCC SC5314 infected in BALB/c mouse assessed as decrease in PD-L1 expression level at 10 ug, ip for 14 days by immunohistochemical analysis; format: functional, organism-based; details: dose 10.0 µg, time 14.0 day
Cell membrane [27] = assay: Induction of cell membrane integrity disruption in Candida albicans ATCC SC5314 assessed as accumulation of low density particulate matter at 1 microM/ml incubated for 48 to 72 hrs by TEM analysis; format: subcellular; details: time 48-72 hrs
Cell membrane [28] = assay: Induction of cell membrane integrity disruption in Candida albicans ATCC SC5314 assessed as reduced cytoplasmic density at 1 microM/ml incubated for 48 to 72 hrs by TEM analysis; format: subcellular; details: time 48-72 hrs

Sequence of Lanosterol 14-alpha demethylase (P10613 whole entry): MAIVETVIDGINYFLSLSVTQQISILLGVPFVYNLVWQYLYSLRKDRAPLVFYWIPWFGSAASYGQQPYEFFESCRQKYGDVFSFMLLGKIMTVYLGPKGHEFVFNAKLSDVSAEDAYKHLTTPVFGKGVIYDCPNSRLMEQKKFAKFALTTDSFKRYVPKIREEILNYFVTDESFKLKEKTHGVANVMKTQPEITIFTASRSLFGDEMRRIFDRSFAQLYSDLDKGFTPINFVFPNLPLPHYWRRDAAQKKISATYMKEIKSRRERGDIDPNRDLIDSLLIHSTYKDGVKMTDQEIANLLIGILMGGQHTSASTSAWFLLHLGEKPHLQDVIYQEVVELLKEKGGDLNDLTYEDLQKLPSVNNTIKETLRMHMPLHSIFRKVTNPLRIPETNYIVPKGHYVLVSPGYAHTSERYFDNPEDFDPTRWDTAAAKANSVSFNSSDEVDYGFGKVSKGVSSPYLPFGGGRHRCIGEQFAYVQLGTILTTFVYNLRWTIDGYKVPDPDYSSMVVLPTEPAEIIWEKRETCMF
Sequence of Programmed cell death protein 1/Programmed cell death 1 ligand 1 (Q15116 whole entry): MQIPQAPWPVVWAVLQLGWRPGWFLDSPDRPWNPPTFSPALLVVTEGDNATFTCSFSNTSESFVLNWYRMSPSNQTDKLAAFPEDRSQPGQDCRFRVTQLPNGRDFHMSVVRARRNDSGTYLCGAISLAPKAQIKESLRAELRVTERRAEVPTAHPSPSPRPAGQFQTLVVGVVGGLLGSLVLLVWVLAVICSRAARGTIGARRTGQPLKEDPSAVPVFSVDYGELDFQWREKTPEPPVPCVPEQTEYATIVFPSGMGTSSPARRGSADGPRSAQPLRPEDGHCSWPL
Sequence of Programmed cell death protein 1/Programmed cell death 1 ligand 1 (Q9NZQ7 whole entry): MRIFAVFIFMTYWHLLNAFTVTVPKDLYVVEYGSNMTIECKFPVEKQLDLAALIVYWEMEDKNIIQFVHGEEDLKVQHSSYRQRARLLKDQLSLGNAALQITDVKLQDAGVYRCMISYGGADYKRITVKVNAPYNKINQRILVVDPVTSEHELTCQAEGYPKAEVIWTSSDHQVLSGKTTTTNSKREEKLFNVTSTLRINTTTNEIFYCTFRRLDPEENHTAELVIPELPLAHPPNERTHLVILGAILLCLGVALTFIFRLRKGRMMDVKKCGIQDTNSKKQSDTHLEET
Sequence of Programmed cell death 1 ligand 1 (Q9NZQ7 whole entry): as above

| SMILES | Activity (Candida albicans [1]) | Activity (Candida albicans [3]) | Activity (Candida albicans [4]) [%] | Activity (Candida albicans [5]) | Activity [7] | Activity (Candida albicans [8]) | Activity [10] | Activity [12] [IU/L] | Activity (Candida albicans [13]) | Activity [14] | Activity [16] | MIC50 (Pichia kudriavzevii) [µg/mL] | MIC50 (Candida albicans [18]) [µg/mL] | Activity [20] [%] | MIC50 (Cryptococcus neoformans) [µg/mL] | Kd [21] [nM] | IC50 [22] [nM] | fold change (FC) (Candida albicans [24]) | Activity (Candida albicans [26]) | also measured |
| --- | --- | --- | --- | --- | --- | --- | --- | --- | --- | --- | --- | --- | --- | --- | --- | --- | --- | --- | --- | --- |
| OC(Cn1cncn1)(Cn1cncn1)c1ccc(F)cc1F [FLUCONAZOLE] | Active | Active | 55.3 | Active | Non-Toxic | Active | Non-Toxic | 41.9 | Active | Non-Toxic | Non-Toxic | 1 (≈ 3.27 µM) | > 8 | 17.84 | 1 (≈ 3.27 µM) | – | – | – | – | Activity (Candida albicans [2]): Active; Activity (Candida albicans [6]): Active; fold change (FC) (Candida albicans [9]): 1.46; Activity (Candida albicans [11]): Active; Activity [15]: Non-Toxic; Activity [17]: Non-Toxic; Activity (Candida albicans [19]): Active |
| CC(=O)c1ccc(C(=O)N2CCC(NC(=O)c3nc(-n4cncn4)c4ccccc4n3)CC2)cc1 | Active | Active | 57.9 | Active | Non-Toxic | Active | Non-Toxic | 32.3 | Active | Non-Toxic | Non-Toxic | 0.25 (≈ 0.532 µM) | 2 (≈ 4.26 µM) | 18.64 | 0.5 (≈ 1.06 µM) | 65.5 | 17 | 1.46 | Active | Activity (Cell membrane [23]): Active; Activity (Candida albicans [25]; T-cell, dose 10.0 µg, time 14.0 day): Active; Activity (Cell membrane [27]): Active; Activity (Cell membrane [28]): Active |
| CC(C)c1ccc(C(=O)N2CCC(NC(=O)c3nc(-n4ccnc4)c4ccccc4n3)CC2)cc1 | Active | Active | 54.5 | Active | Non-Toxic | Active | Non-Toxic | 30.5 | Active | Non-Toxic | Non-Toxic | 0.5 (≈ 1.07 µM) | 4 (≈ 8.54 µM) | 20.92 | 0.5 (≈ 1.07 µM) | 60.7 | 39 | 1.46 | Active | fold change (FC) (Candida albicans [25]; dose 10 µg, time 14 day): 1.46 |
